Source: patent US20220389061A1, “IMMUNOMODULATORS” (priority 2019, published 2022)
Starred links: 1 amine or outer side, 2 acyl side, 3 side chain; linkers in the order of their positions; H or OH if unused. Positions of bridges follow the written chain, without caps; N, C: chain ends. Non-standard residues stand in square brackets, D forms with d. Residues, ends and D or L forms follow the SMILES beside them. Groups on a side chain read outwards from the residue. *: point of attachment. Trp(1-CH2COOH) = N[C@@H](Cc1cn(CC(=O)O)c2ccccc12)C(=O)O; NH(3,5-Cl2-phenyl) = Clc1cc(Cl)cc(N*)c1; X8 = NC(=O)c1c[nH]c2c(NC(=S)*)cccc12; X50 = COc1cc(NC(=S)*)ccc1-c1cnco1; Hyp = O=C(O)[C@@H]1C[C@@H](O)CN1; X44 = FC(F)(F)c1ccc(NC(=S)*)cc1; X30 = FC(F)(F)c1ccc(N*)c(Cl)c1; X43 = S=C(Nc1ccccc1Oc1ccccc1)*; NMeNle = CCCC[C@H](NC)C(=O)O; X16 = S=C(Nc1ccc2c(c1)OCO2)*; X85 = S=C(Nc1c(Cl)cccc1Cl)*; NMeA = CN[C@@H](C)C(=O)O; Dab = NCC[C@H](N)C(=O)O; X39 = CCCCOc1ccc(N*)cc1; Dap = NC[C@H](N)C(=O)O; CO = O=C([*:1])[*:2]

Target: T1, PD-1/PD-L1 (Homo sapiens, UniProt Q9NZQ7)
T1 construct: TVMV protease site linker (C); made in house; host or cells: HEK293T cells
Experiment: PD-1/PD-L1 Homogenous Time-Resolved Fluorescence (HTRF) binding assay
Conditions: not given
Procedure, shortened: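 Compounds preincubated 15 min with PD-L1-His (10 nM final), then PD-1-Ig (20 nM final) added for 15 min in dPBS with 0.1% BSA, 0.05% Tween-20. Detection by Eu-cryptate anti-Ig (1 nM) and APC anti-His (20 nM) HTRF.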

T1 sequence (Q9NZQ7 18-239): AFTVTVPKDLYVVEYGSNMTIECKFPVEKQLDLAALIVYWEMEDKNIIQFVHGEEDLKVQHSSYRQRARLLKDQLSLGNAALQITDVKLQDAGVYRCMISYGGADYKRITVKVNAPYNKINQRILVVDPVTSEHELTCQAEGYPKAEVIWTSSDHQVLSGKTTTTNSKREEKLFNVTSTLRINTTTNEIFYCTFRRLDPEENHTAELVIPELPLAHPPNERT

| Structure (SMILES) | IC50 [nM] |
| --- | --- |
| CCCC[C@H]1C(=O)N(C)[C@@H](CCCC)C(=O)N[C@@H](CC(C)C)C(=O)N[C@H](C(=O)NCC(N)=O)CSCC(=O)N[C@@H](Cc2ccc(O)cc2)C(=O)N(C)[C@@H](C)C(=O)N[C@@H](CC(N)=O)C(=O)N2CCC[C@H]2C(=O)N[C@@H](CNC(=O)Nc2cc(Cl)cc(Cl)c2)C(=O)N[C@@H](CC(C)C)C(=O)N2C[C@H](O)C[C@H]2C(=O)N[C@@H](Cc2c[nH]c3ccccc23)C(=O)N[C@@H](CCN)C(=O)N[C@@H](Cc2cn(CC(=O)O)c3ccccc23)C(=O)N1C [Example 1068] ({CH2CO}-Y[NMeA]NP[Dap]([CO-NH(3,5-Cl2-phenyl)])L[Hyp]W[Dab][Trp(1-CH2COOH)][NMeNle][NMeNle]LCG-NH2; thioether N-14) | 4.3 |

Same assay, conditions: PD-L1-His 10 nM pre-incubated with inhibitor, PD-1-Ig 20 nM; read-out: HTRF IC50

| Structure (SMILES) | IC50 [nM] |
| --- | --- |
| CCCC[C@H]1C(=O)N(C)[C@@H](CCCC)C(=O)N[C@@H](CC(C)C)C(=O)N[C@H](C(=O)NCC(N)=O)CSCC(=O)N[C@@H](Cc2ccc(O)cc2)C(=O)N(C)[C@@H](C)C(=O)N[C@@H](CC(N)=O)C(=O)N2CCC[C@H]2C(=O)N[C@@H](CNC(=S)Nc2ccccc2Oc2ccccc2)C(=O)N[C@@H](CC(C)C)C(=O)N2C[C@H](O)C[C@H]2C(=O)N[C@@H](Cc2c[nH]c3ccccc23)C(=O)N[C@@H](CCN)C(=O)N[C@@H](Cc2cn(CC(=O)O)c3ccccc23)C(=O)N1C [Example 1135] ({CH2CO}-Y[NMeA]NP[Dap](X43)L[Hyp]W[Dab][Trp(1-CH2COOH)][NMeNle][NMeNle]LCG-NH2; thioether N-14) | 4.9 |
| CCCC[C@H]1C(=O)N(C)[C@@H](CCCC)C(=O)N[C@@H](CC(C)C)C(=O)N[C@H](C(=O)NCC(N)=O)CSCC(=O)N[C@@H](Cc2ccc(O)cc2)C(=O)N(C)[C@@H](C)C(=O)N[C@@H](CC(N)=O)C(=O)N2CCC[C@H]2C(=O)N[C@@H](CNC(=S)Nc2cccc3c(C(N)=O)c[nH]c23)C(=O)N[C@@H](CC(C)C)C(=O)N2C[C@H](O)C[C@H]2C(=O)N[C@@H](Cc2c[nH]c3ccccc23)C(=O)N[C@@H](CCNC(=S)Nc2cccc3c(C(N)=O)c[nH]c23)C(=O)N[C@@H](Cc2cn(CC(=O)O)c3ccccc23)C(=O)N1C [Example 3023] ({CH2CO}-Y[NMeA]NP[Dap](X8)L[Hyp]W[Dab](X8)[Trp(1-CH2COOH)][NMeNle][NMeNle]LCG-NH2; thioether N-14) | 1.6 |
| CCCC[C@H]1C(=O)N(C)[C@@H](CCCC)C(=O)N[C@@H](CC(C)C)C(=O)N[C@H](C(=O)NCC(N)=O)CSCC(=O)N[C@@H](Cc2ccc(O)cc2)C(=O)N(C)[C@@H](C)C(=O)N[C@@H](CC(N)=O)C(=O)N2CCC[C@H]2C(=O)N[C@@H](CNC(=O)Nc2ccc(C(F)(F)F)cc2Cl)C(=O)N[C@@H](CC(C)C)C(=O)N2C[C@H](O)C[C@H]2C(=O)N[C@@H](Cc2c[nH]c3ccccc23)C(=O)N[C@@H](CCNC(=O)Nc2ccc(C(F)(F)F)cc2Cl)C(=O)N[C@@H](Cc2cn(CC(=O)O)c3ccccc23)C(=O)N1C [Example 1116] ({CH2CO}-Y[NMeA]NP[Dap]([CO-X30])L[Hyp]W[Dab]([CO-X30])[Trp(1-CH2COOH)][NMeNle][NMeNle]LCG-NH2; thioether N-14) | 18 |
| CCCC[C@H]1C(=O)N(C)[C@@H](CCCC)C(=O)N[C@@H](CC(C)C)C(=O)N[C@H](C(=O)NCC(N)=O)CSCC(=O)N[C@@H](Cc2ccc(O)cc2)C(=O)N(C)[C@@H](C)C(=O)N[C@@H](CC(N)=O)C(=O)N2CCC[C@H]2C(=O)N[C@@H](CNC(=S)Nc2ccc(-c3cnco3)c(OC)c2)C(=O)N[C@@H](CC(C)C)C(=O)N2C[C@H](O)C[C@H]2C(=O)N[C@@H](Cc2c[nH]c3ccccc23)C(=O)N[C@@H](CCNC(=S)Nc2ccc(-c3cnco3)c(OC)c2)C(=O)N[C@@H](Cc2cn(CC(=O)O)c3ccccc23)C(=O)N1C [Example 1029] ({CH2CO}-Y[NMeA]NP[Dap](X50)L[Hyp]W[Dab](X50)[Trp(1-CH2COOH)][NMeNle][NMeNle]LCG-NH2; thioether N-14) | 3.1 |
| CCCC[C@H]1C(=O)N(C)[C@@H](CCCC)C(=O)N[C@@H](CC(C)C)C(=O)N[C@H](C(=O)NCC(N)=O)CSCC(=O)N[C@@H](Cc2ccc(O)cc2)C(=O)N(C)[C@@H](C)C(=O)N[C@@H](CC(N)=O)C(=O)N2CCC[C@H]2C(=O)N[C@@H](CNC(=S)Nc2ccc3c(c2)OCO3)C(=O)N[C@@H](CC(C)C)C(=O)N2C[C@H](O)C[C@H]2C(=O)N[C@@H](Cc2c[nH]c3ccccc23)C(=O)N[C@@H](CCN)C(=O)N[C@@H](Cc2cn(CC(=O)O)c3ccccc23)C(=O)N1C [Example 3065] ({CH2CO}-Y[NMeA]NP[Dap](X16)L[Hyp]W[Dab][Trp(1-CH2COOH)][NMeNle][NMeNle]LCG-NH2; thioether N-14) | 0.98 |
| CCCC[C@H]1C(=O)N(C)[C@@H](CCCC)C(=O)N[C@@H](CC(C)C)C(=O)N[C@H](C(=O)NCC(N)=O)CSCC(=O)N[C@@H](Cc2ccc(O)cc2)C(=O)N(C)[C@@H](C)C(=O)N[C@@H](CC(N)=O)C(=O)N2CCC[C@H]2C(=O)N[C@@H](CNC(=S)Nc2ccc(C(F)(F)F)cc2)C(=O)N[C@@H](CC(C)C)C(=O)N2C[C@H](O)C[C@H]2C(=O)N[C@@H](Cc2c[nH]c3ccccc23)C(=O)N[C@@H](CCN)C(=O)N[C@@H](Cc2cn(CC(=O)O)c3ccccc23)C(=O)N1C [Example 1034] ({CH2CO}-Y[NMeA]NP[Dap](X44)L[Hyp]W[Dab][Trp(1-CH2COOH)][NMeNle][NMeNle]LCG-NH2; thioether N-14) | 3.5 |
| CCCC[C@H]1C(=O)N(C)[C@@H](CCCC)C(=O)N[C@@H](CC(C)C)C(=O)N[C@H](C(=O)NCC(N)=O)CSCC(=O)N[C@@H](Cc2ccc(O)cc2)C(=O)N(C)[C@@H](C)C(=O)N[C@@H](CC(N)=O)C(=O)N2CCC[C@H]2C(=O)N[C@@H](CN)C(=O)N[C@@H](CC(C)C)C(=O)N2C[C@H](O)C[C@H]2C(=O)N[C@@H](Cc2c[nH]c3ccccc23)C(=O)N[C@@H](CCNC(=S)Nc2cccc3c(C(N)=O)c[nH]c23)C(=O)N[C@@H](Cc2cn(CC(=O)O)c3ccccc23)C(=O)N1C [Example 3027] ({CH2CO}-Y[NMeA]NP[Dap]L[Hyp]W[Dab](X8)[Trp(1-CH2COOH)][NMeNle][NMeNle]LCG-NH2; thioether N-14) | 3.9 |
| CCCCOc1ccc(NC(=O)NCC[C@@H]2NC(=O)[C@H](Cc3c[nH]c4ccccc34)NC(=O)[C@@H]3C[C@@H](O)CN3C(=O)[C@H](CC(C)C)NC(=O)[C@H](CN)NC(=O)[C@@H]3CCCN3C(=O)[C@H](CC(N)=O)NC(=O)[C@H](C)N(C)C(=O)[C@H](Cc3ccc(O)cc3)NC(=O)CSC[C@@H](C(=O)NCC(N)=O)NC(=O)[C@H](CC(C)C)NC(=O)[C@H](CCCC)N(C)C(=O)[C@H](CCCC)N(C)C(=O)[C@H](Cc3cn(CC(=O)O)c4ccccc34)NC2=O)cc1 [Example 1119] ({CH2CO}-Y[NMeA]NP[Dap]L[Hyp]W[Dab]([CO-X39])[Trp(1-CH2COOH)][NMeNle][NMeNle]LCG-NH2; thioether N-14) | 3.4 |
| CCCC[C@H]1C(=O)N(C)[C@@H](CCCC)C(=O)N[C@@H](CC(C)C)C(=O)N[C@H](C(=O)NCC(N)=O)CSCC(=O)N[C@@H](Cc2ccc(O)cc2)C(=O)N(C)[C@@H](C)C(=O)N[C@@H](CC(N)=O)C(=O)N2CCC[C@H]2C(=O)N[C@@H](CNC(=S)Nc2c(Cl)cccc2Cl)C(=O)N[C@@H](CC(C)C)C(=O)N2C[C@H](O)C[C@H]2C(=O)N[C@@H](Cc2c[nH]c3ccccc23)C(=O)N[C@@H](CCN)C(=O)N[C@@H](Cc2cn(CC(=O)O)c3ccccc23)C(=O)N1C [Example 1038] ({CH2CO}-Y[NMeA]NP[Dap](X85)L[Hyp]W[Dab][Trp(1-CH2COOH)][NMeNle][NMeNle]LCG-NH2; thioether N-14) | 2.4 |
